According to US9487553B2, “Boranophosphate analogues of cyclic nucleotides” (BIOLOG LIFE SCIENCE INSTITUTE FORSCHUNGSLABOR UND …, priority 2011, dated 2016):

Experiments:
[1] = Degradation Example 1: oxidation with hydrogen peroxide, monitored by HPLC; type: physicochemical; conditions: after further addition of 10 μl of 30% H2O2, two hours at RT
Source text: In order to check out the stability of the boranophosphates described in this invention towards oxidising conditions in comparison to the corresponding phosphorothioates, 0.1 μmol of the sodium salts of each, Rp-8-bromoadenosine-3′,5′-cyclic boranophosphate (Rp-8-Br-cAMPB, example 1), Sp-8-bromoadenosine-3′,5′-cyclic boranophosphate (Sp-8-Br-cAMPB, example 2), Rp-8-bromoadenosine-3′,5′-cyclic phosphorothioate (Rp-8-Br-cAMPS, Biolog) and Sp-8-bromoadenosine-3′,5′-cyclic phosphorothioate (Sp-8-Br-cAMPS, Biolog) were dissolved in 100 μl of eluent and the mixture was analyzed by HPLC (RP-18, 11% acetonitrile, 20 mM triethylammonium formate buffer, pH 6.1, 1.5 ml/min, UV 258 nm). The following elution profile was recorded: Rp-8-Br-cAMPS (5:13 min.)<Sp-8-Br-cAMPS (7:23 min.)<Sp-8-Br-cAMPB (9:13 min.)<Rp-8-Br-cAMPB ([…].).
Subsequently, aqueous hydrogen peroxide (Merck) was added in small portions while the stability of the four compounds was permanently monitored over time.
10 μl of H2O2 (0.3%) as well as 10 μl of 3% H2O2 were added to no effect.

protein kinase G I α = molecular target: T1, protein kinase G I α (Homo sapiens, UniProt Q13976); test: Protein kinase G I alpha activation, phosphotransferyl assay; type: biochemical; conditions: 10 nM, 100 nM and 1 μM
T1 sequence (Q13976 1-671): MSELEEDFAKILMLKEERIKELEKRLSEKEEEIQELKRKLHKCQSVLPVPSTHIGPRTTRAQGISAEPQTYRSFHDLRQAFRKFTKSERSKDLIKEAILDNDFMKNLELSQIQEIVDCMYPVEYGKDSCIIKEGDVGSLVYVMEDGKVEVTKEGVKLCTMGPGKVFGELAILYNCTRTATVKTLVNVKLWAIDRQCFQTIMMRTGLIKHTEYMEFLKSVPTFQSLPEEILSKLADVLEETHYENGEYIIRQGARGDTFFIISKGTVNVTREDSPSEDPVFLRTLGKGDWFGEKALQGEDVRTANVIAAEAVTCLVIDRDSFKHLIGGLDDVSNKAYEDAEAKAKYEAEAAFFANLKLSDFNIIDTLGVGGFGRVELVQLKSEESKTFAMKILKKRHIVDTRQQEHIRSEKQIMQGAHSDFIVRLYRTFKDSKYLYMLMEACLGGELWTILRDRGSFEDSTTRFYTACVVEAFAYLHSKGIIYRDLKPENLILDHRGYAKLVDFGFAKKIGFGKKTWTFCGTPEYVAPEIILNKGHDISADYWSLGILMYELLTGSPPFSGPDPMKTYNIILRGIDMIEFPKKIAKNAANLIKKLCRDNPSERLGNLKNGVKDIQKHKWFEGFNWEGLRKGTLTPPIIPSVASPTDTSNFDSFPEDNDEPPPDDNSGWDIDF
Source text: Next, the activity profile of some cyclic boranophosphates disclosed in this invention has also been investigated on protein kinase G I α (FIGS. 8 and 9). Potential activatory potential towards the enzyme has been determined by a standard phosphotransferyl assay protocol according to Dostmann et al. (Dostmann, W. R.; Nickl, C.; Thiel, S.; Tsigelny, I.; Frank, R.; and Tegge, W. J., Pharmacol. Ther., 82, 373-387 (1999). FIG. 8 depicts the activity (μmol×min^−1×mg^−1) overview of six different cyclic boranophosphate analogues with protein kinase G type I at 10 nM, 100 nM and 1 μM. BLG-9108: […]; BLG-9110: Sp-8-Br-cAMPB; BLG-9111: Rp-8-Br-cAMPB; BLG-9112: Sp-8-Br-cGMPB; BLG-9113: Rp-8-Br-cGMPB; control: cyclic GMP.

[2] = molecular target: protein kinase A type I alpha holoenzyme (Homo sapiens, UniProt P10644); test: Standard photometric (Cook) assay with protein kinase A type I alpha holoenzyme; type: biochemical; conditions: holoenzyme RIα
Source text: In a first experiment, the biological activity of the Rp- and Sp-isomer of 8-bromoadenosine-3′,5′-cyclic boranophosphate (examples 1 and 2) has been tested with the holoenzyme of protein kinase A type I alpha (FIGS. 3 and 4) using a standard photometric assay (Cook, P. F.; Neville, M. E., Jr.; Vrana, K. E.; Hartl, F. T. and Roskoski, R., Jr., Biochemistry 21, 5794-5799 (1982)).
As a control, two boranophosphate analogues with a 2′-O-methyl modification (Rp-2′-O-Me-cAMPB and Sp-2′-O-Me-cAMPB, examples 7 & 8) have been tested by the same type of assay with protein kinase A type I alpha as well.
FIG. 5 depicts the activity overview of four different cyclic boranophosphate analogues with protein kinase A type I alpha holoenzyme. 9108: Sp-2′-O-Me-cAMPB; 9109: Rp-2′-O-Me-cAMPB; 9110: Sp-8-Br-cAMPB; 9111: Rp-8-Br-cAMPB; controls: B 001: Rp-8-Br-cAMPS. Control: cAMP. “Cook Assay” with Holoenzyme RIα.

Sequence of protein kinase A type I alpha holoenzyme (P10644 whole entry): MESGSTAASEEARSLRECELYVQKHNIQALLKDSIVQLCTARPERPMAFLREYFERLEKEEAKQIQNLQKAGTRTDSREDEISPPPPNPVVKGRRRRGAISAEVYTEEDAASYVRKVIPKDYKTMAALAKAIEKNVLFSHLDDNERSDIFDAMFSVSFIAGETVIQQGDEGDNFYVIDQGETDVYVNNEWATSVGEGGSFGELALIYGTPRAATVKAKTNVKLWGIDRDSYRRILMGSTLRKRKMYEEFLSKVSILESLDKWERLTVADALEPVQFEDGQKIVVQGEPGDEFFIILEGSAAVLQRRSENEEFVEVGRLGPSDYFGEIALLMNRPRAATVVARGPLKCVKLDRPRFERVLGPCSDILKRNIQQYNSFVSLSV

HPLC signal area lost [1]	effect on protein kinase A type I alpha holoenzyme [2]	Substance	modulation of protein kinase G (protein kinase G I α)
35%	agonistic property	8-Bromoadenosine-3′,5′-cyclic boranophosphate, Rp-isomer [Rp-8-Br-cAMPB]	as potent or even better as guanine related compounds
35%	inhibitory potential	8-Bromoadenosine-3′,5′-cyclic boranophosphate, Sp-isomer [Sp-8-Br-cAMPB]	as potent or even better as guanine related compounds
